Laboratory results: PubChem BioAssay (NCI)
Where “and” joins values, the source holds several entries; their conditions need not be identical. Equal values may be shown once.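 Method: 48-hour compound exposure of cells in 96-well plates, five concentrations, linear interpolation of endpoints. Abbreviation: GI50, concentration required for 50% inhibition of growth. TGI is the concentration that stops growth completely.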

How the values were obtained:
Assay in all cases: NCI tumour cell line growth inhibition, 48 h
[1] = system: DU-145 prostate
[2] = system: U251 CNS
[3] = system: K-562 leukemia
[4] = system: EKVX NSCLC
[5] = system: MDA-MB-435
[6] = system: ACHN renal
[7] = system: A498 renal
[8] = system: T-47D breast
[9] = system: SNB-19 CNS
[10] = system: UACC-257 melanoma

Structure (SMILES)	GI50 [1]	TGI [1]	GI50 [2]	TGI [2]	GI50 [3]	TGI [3]	GI50 [4]	TGI [4]	GI50 [5]	TGI [5]	GI50 [6]	TGI [6]	GI50 [7]	TGI [7]	GI50 [8]	TGI [8]	GI50 [9]	TGI [9]	GI50 [10]	TGI [10]
CCN1c2ccccc2C(Cl)(c2ccc(N(C)C)cc2)c2ccccc21	5.5 µM	17.1 µM	3.69 µM	17.4 µM	3100 nM	25.7 µM	7.98 µM	> 100 µM	3.34 µM	14 µM	12400 nM	28.4 µM	59.6 µM	> 100 µM	4220 nM	64.2 µM	5.44 µM	19.1 µM	–	–
C=CC1CC12C(=O)C1OC2(C)C2C(=O)c3c(O)ccc(O)c3C(=O)C12 (configuration not stated)	3.91 µM	13 µM	4.3 µM	12.6 µM	2480 nM	6.95 µM	7.46 µM	28.2 µM	4.44 µM	11.1 µM	1770 nM	4.37 µM	3.89 µM	13.4 µM	2560 nM	14.1 µM	5.35 µM	14.5 µM	3.75 µM	11.2 µM
C/C(=N\N=C(/[Se])N1CC2CCC(CC2)C1)c1ccccn1	–	1.68 µM	–	1.51 µM	–	0.575 µM	–	2.06 µM	–	0.619 µM	–	1.78 µM	–	1.31 µM	–	3.05 µM	–	4.06 µM	–	0.569 µM
O=Nc1ccc2ccccc2c1O	10.4 µM	22.7 µM	3.11 µM	9.46 µM	–	–	8.61 µM	22.6 µM	2.31 µM	4.53 µM	5500 nM	18.4 µM	14.3 µM	28.2 µM	2750 nM	6.08 µM	15 µM	28.4 µM	2.13 µM	4.19 µM
CC(=O)O/N=C1/C(c2c(O)[nH]c3cc(Br)ccc23)=Nc2ccccc21	1.44 µM	3.2 µM	1.72 µM	5.63 µM	553 nM	3.3 µM	1.37 µM	2.95 µM	1.63 µM	3.2 µM	707 nM	2.18 µM	0.429 µM	1.2 µM	2590 nM	7.82 µM	4.26 µM	11.1 µM	2.26 µM	4.38 µM
CO[C@@H]1CC(=O)C2(CC(=O)O[C@@H]2/C=C(\C)CCC=C(C)C)C[C@@H]1O (some centres not stated)	0.577 µM	1.55 µM	0.672 µM	1.4 µM	829 nM	> 50 µM	1.42 µM	4.51 µM	0.803 µM	3.59 µM	817 nM	1.78 µM	1.66 µM	4.63 µM	522 nM	1.26 µM	1.23 µM	4.11 µM	0.883 µM	2.52 µM
O=C(c1ccco1)c1c(C(F)(F)F)n([O-])c2ccccc2[n+]1=O	0.367 µM	0.969 µM	0.719 µM	18.2 µM	207 nM	3.43 µM	0.226 µM	0.741 µM	1.85 µM	17.5 µM	506 nM	4.21 µM	1.57 µM	8.27 µM	1970 nM	29.7 µM	3.34 µM	22.3 µM	4.32 µM	14.7 µM
COc1cc(/C=C2\CCC(CN(C)C)C2=O)ccc1OC(=O)c1ccccc1 (configuration not stated)	–	29.8 µM	–	29.8 µM	–	9.04 µM	–	28.1 µM	–	27.3 µM	–	28.7 µM	–	33.1 µM	–	7.9 µM	–	25.5 µM	–	26.6 µM
Cc1ccc2c(c1)NC(=O)CC(c1ccccc1)=N2	–	> 100 µM	–	> 100 µM	–	26.7 µM	–	> 100 µM	–	> 100 µM	–	> 100 µM	–	> 100 µM	–	> 100 µM	–	> 100 µM	–	> 100 µM
O=c1[nH]cnc2[nH]ncc12	> 92.6 µM and 189 µM	> 2150 µM	1560 µM	> 4470 µM	179000 nM	> 5000 µM	785 µM	> 5000 µM	380 µM	> 5000 µM	193000 nM	> 5000 µM	532 µM	> 5000 µM	698000 nM	> 5000 µM	> 5000 µM	> 5000 µM	788 µM	> 5000 µM
CSc1ccc2c3c(n(C[C@H](O)CO)c(=O)c2c1)-c1ccccc1C3=O	2.5 µM	> 100 µM	1.19 µM	7.49 µM	1720 nM	> 100 µM	3.89 µM	88 µM	9.95 µM	> 100 µM	–	–	2.57 µM	12.6 µM	2850 nM	45.8 µM	–	–	13.2 µM	42.6 µM
C=C(c1ccc(C(=O)N(C)c2ccccc2N)cc1)C(C)N1C(=O)[C@H]2CCCN2C(=O)c2ccccc21 (some centres not stated)	33.3 µM	> 100 µM	–	–	19300 nM	> 100 µM	80.6 µM	> 100 µM	38.3 µM	> 100 µM	36500 nM	> 100 µM	19.2 µM	67.5 µM	16500 nM	90.5 µM	> 100 µM	> 100 µM	34.7 µM	> 100 µM
COC(=O)[C@]12CC[C@@H](C)[C@H](C)[C@@H]1C1=CC[C@@H]3[C@@]4(C)C=C(O)C(=O)[C@@]5(C)COC(=C54)C[C@@]3(C)[C@]1(C)CC2	11.7 µM	28.2 µM	12.6 µM	30.7 µM	3120 nM	13.8 µM	8.37 µM	26.5 µM	6.12 µM	21.5 µM	11700 nM	28.7 µM	15.2 µM	32.5 µM	3660 nM	20.7 µM	15.8 µM	37.9 µM	4.32 µM	18.8 µM
COc1ccc(/C=C/C(=O)Oc2cc(O)cc(O)c2)cc1	–	> 100 µM	–	> 100 µM	–	> 100 µM	–	> 100 µM	–	> 100 µM	–	> 100 µM	–	> 100 µM	–	> 100 µM	–	> 100 µM	–	> 100 µM
CN1CCN(Cc2ccc(NC(=O)c3ccc(C#Cc4c(N)ncc5ccc(F)cc45)cc3)cc2C(F)(F)F)CC1	0.968 µM	1.77 µM	0.851 µM	1.59 µM	677 nM	1.87 µM	0.94 µM	1.85 µM	0.874 µM	1.59 µM	970 nM	1.71 µM	1.79 µM	9.71 µM	878 nM	1.85 µM	1.09 µM	1.91 µM	1.02 µM	1.91 µM
CC(C)NC(=O)OCc1c(COC(=O)NC(C)C)c(-c2ccc(Cl)cc2)n2c1CCC2	2.1 µM	7.18 µM	2.88 µM	35.2 µM	2650 nM	> 26.1 µM	4.09 µM	32.9 µM	5.04 µM	19.8 µM	1340 nM	9.19 µM	1.92 µM	4.46 µM	3900 nM	20.9 µM	4.65 µM	21.7 µM	4.16 µM	29.4 µM
c1ccc(-c2nc(-c3ccccc3)c(-c3ccccc3)[nH]2)cc1	–	> 100 µM	–	> 100 µM	–	–	–	> 100 µM	–	> 100 µM	–	> 100 µM	–	> 100 µM	–	> 100 µM	–	> 100 µM	–	> 100 µM
COc1cccc(/C=C/c2cnc3ccccc3n2)c1OC	–	> 100 µM	–	> 100 µM	–	> 100 µM	–	> 100 µM	–	> 100 µM	–	> 100 µM	–	> 100 µM	–	82.9 µM	–	–	–	> 100 µM
Cc1ccc2c(O)c(O)cc(NC(C)CCCN)c2n1 (configuration not stated)	10.5 µM	31.4 µM	3.67 µM	14.8 µM	12300 nM	60.4 µM	25.3 µM	> 83.1 µM	19.4 µM	38.3 µM	> 100000 nM	> 100 µM	> 100 µM	> 100 µM	6570 nM	38.3 µM	–	–	19.8 µM	54.5 µM
COc1cc(/C=C2\CN(C)C/C(=C\c3cc(CN4CCCCC4)c(O)c(OC)c3)C2=O)cc(CN2CCCCC2)c1O	3.88 µM	13.7 µM	3.1 µM	13.2 µM	3120 nM	35.2 µM	4.57 µM	17.6 µM	3.6 µM	13.2 µM	3950 nM	13.9 µM	10.1 µM	22.7 µM	5720 nM	24 µM	–	–	7.99 µM	22 µM
COc1ccc2nc3cc(Cl)ccc3c(NCCCNCCC(C)O)c2c1 (configuration not stated)	0.302 µM	1.24 µM	0.495 µM	2.34 µM	–	–	0.473 µM	2.41 µM	0.504 µM	1.79 µM	192 nM	1.68 µM	0.42 µM	1.54 µM	1040 nM	4.04 µM	0.423 µM	2.69 µM	1.63 µM	3.43 µM
